Key:
[1] = test system: (+)bicuculline-induced seizures in mice; test: animal or person; type: in vivo
Protocol: (§1) Experiments were also performed to determine the physiological relevance of these interactions by measuring the ability of the compounds of and used in the invention to modulate TBPS-induced convulsions in Swiss-Webster mice. […] The time to onset of myoclonus (presence of forelimb clonic activity) induced by TBPS was determined by observing each mouse for a period of 45 minutes. Significant differences between the time to onset in control mice vs. steroid-treated mice were determined by Student's t-test. […] The number of animals with tonic and/or clonic convulsions was recorded. In the maximal electroshock test, 50 mA of current at 60 Hz was delivered through corneal electrodes for 200 msec. […] The ED50 (the dose at which the half-maximal effect occurs) dose was determined for each screen.

[2] = test system: metrazol-induced convulsions in mice; test: metrazol-induced convulsions; type: in vivo; details: Mus musculus, metrazol 85 mg/kg, 95% confidence limits, read-out: MTZ (metrazol) ED50
Protocol: as §1

BZ receptor = test: modulation of [3H] flunitrazepam binding; parameters: species or system rat; details: pentobarbital 1.0 millimolar; 0.25 nM [3H]FLU; absence of GABA
[3] = test system: picrotoxin-induced convulsions in mice; test: picrotoxin-induced convulsions; type: in vivo; details: Mus musculus, read-out: PICRO (picrotoxin) ED50
Protocol: as §1

mice [4] = test: rotorod test (sedative potential)
[5] = test system: GBR complex ([35S]TBPS site); test: dissociation kinetics of [35S]TBPS in cortical P2 homogenates; type: binding, rat; details: for effect on dissociation mechanism/kinetics of [35S]TBPS (in words): pentobarbital 30 micromolar, alphaxalone 300 nanomolar, 5-alpha-pregnan-3-alpha-hydroxy-20-one 20 nanomolar
Protocol: An assay was performed to determine the effect of pentobarbital on the dissociation kinetics of [^35 S]TBPS in rat cerebral cortical membranes. This assay was performed in accordance with the procedures outlined above. […] Dissociation of bound [^35 S]TBPS was initiated by 2 micromolar TBPS in all cases.

progesterone receptor = biological target: T1, progesterone receptor (Rattus norvegicus, UniProt Q63449); test: [3H]R5020 binding to the progesterone receptor in rat uterus; details: FIG. 5
T1 sequence (Q63449 1-923): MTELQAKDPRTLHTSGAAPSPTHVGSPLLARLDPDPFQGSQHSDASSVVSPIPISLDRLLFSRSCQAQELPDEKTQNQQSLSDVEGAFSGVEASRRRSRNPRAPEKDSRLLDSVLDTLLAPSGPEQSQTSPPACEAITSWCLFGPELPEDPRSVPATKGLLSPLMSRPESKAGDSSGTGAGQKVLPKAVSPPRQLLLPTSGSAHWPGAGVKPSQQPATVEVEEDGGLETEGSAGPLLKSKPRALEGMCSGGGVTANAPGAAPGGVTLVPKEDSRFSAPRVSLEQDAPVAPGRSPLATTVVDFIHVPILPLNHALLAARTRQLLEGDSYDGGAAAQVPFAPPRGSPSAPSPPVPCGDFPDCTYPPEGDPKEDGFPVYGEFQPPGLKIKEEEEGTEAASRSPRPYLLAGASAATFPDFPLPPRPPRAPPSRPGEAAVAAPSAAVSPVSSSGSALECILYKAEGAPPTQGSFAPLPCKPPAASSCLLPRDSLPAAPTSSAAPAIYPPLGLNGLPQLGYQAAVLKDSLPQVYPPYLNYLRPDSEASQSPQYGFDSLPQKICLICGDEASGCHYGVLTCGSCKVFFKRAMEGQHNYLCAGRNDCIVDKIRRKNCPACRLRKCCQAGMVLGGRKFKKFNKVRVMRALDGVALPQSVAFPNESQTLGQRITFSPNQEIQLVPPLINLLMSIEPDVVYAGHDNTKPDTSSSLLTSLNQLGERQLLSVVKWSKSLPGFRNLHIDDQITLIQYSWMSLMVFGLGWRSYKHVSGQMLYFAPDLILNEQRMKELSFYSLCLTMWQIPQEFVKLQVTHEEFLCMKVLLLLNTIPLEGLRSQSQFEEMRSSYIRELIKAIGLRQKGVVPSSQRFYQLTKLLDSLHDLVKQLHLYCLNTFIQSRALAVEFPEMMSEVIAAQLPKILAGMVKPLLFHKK
From the text: The data plotted in FIG. 5 were obtained by performing assays in accordance with the procedures outlined above to determine the effect of progesterone metabolites and the progestin R5020 on the binding of [^3 H]R5020 to the progesterone receptor in rat uterus. All points on the plot of FIG. 5 represent the mean of triplicate determinations. The following compounds are those listed in FIG. 5: 5-alpha-pregnan-3-alpha-ol-20-one (DHP), 5-alpha-pregnan-3-alpha,21-diol-20-one (Th-DOC), and 5-beta-pregnane-3-alpha,20 diol (5 BETA).

[6] = test system: strychnine-induced convulsions in mice; test: strychnine-induced convulsions; type: in vivo; details: Mus musculus, read-out: STR (strychnine) ED50
Protocol: as §1

mice [7] = test: acute LD50; details: mice
acute LD50 = details: mouse, in vivo

Compound: CC(=O)[C@H]1CC[C@H]2[C@@H]3CC[C@H]4C[C@H](O)CC[C@]4(C)[C@H]3CC[C@]12C [3α-hydroxy-5α-pregnan-20-one]
- ED50 ([1]; Mus musculus, (+)bicuculline 2.7 mg/kg, 95% confidence limits, read-out: BIC (bicuculline) ED50): 4.1 ± 1.7 mg/kg
- anticonvulsant effectiveness (in words) ([1]; compared with clinically useful anticonvulsants, Table 3): highly effective with a profile similar to that of the benzodiazepine clonazepam
- ED50 [2]: 18.8 ± 1.1 mg/kg
- interaction with pentobarbital in enhancement of [3H] flunitrazepam binding (BZ receptor): does not interact with pentobarbital
- ED50 [3]: 31.7 ± 1.1 mg/kg
- sedative liability at anticonvulsant doses (mice [4]; ED50 rotorod versus (+)bicuculline-induced seizures): low
- Rotorod (RR) ED50 (mice [4]; mice, 10 minutes after injection, 6 rpm rod): 40-100
- Total percentage of specific sites, rapidly dissociating (R) ([5]; (**P < 0.01 vs control), alphaxalone 300 nM, 3a-OH-DHP 20 nM): 35 ± 3 percentage
- Total percentage of specific sites, slowly dissociating (S) ([5]; (*P < 0.05 vs control), alphaxalone 300 nM, 3a-OH-DHP 20 nM): 68 ± 3 percentage
- k-1, slowly dissociating component (S) ([5]; [35S]TBPS dissociation, pentobarbital 30 nM [sic], alphaxalone 300 nM, 3a-OH-DHP 20 nM): 0.011 min⁻¹
- effect on dissociation mechanism/kinetics of [35S]TBPS (in words) [5]: absent
- effect on dissociation mechanism/kinetics of [35S]TBPS (in words) ([5]; listed as 5-alpha-pregnan-3-alpha-ol-20-one): do not influence the dissociation kinetics
- affinity for the progesterone receptor (progesterone receptor): lack of affinity
- ED50 [6]: > 300 mg/kg
- toxicity (in words) (mice [7]): very low toxicity
- LD50 (acute LD50): > 500 mg/kg

Reference: patent publication US5208227A, “Method, compositions, and compounds for modulating brain excitability” (priority 1991, dated 1993)
